Measured values reported in patent US11564913B2, “Compositions and methods for treating cancer” (Children's Hospital Medical Center, priority 2019, dated 2023).

Test system: pPAK1(T423)/pPAK2(T402) in MDA-MB-231 cells
Assay: pPAK immunoblot
Format: cell-based, human
Settings: 1 μM, 30 min
Protocol: FIG. 5: Cytoskeletal changes induced by IODVA1 treatment. IODVA1 inhibits lamellipodia and circular dorsal ruffle (CDR) formation in MDA-MB-231 cells and decreases Rac activation. (A) IODVA1 inhibits EGF-induced lamellipodia formation in MDA-MB-231 cells. MDA-MB-231 cells were plated on fibronectin-coated coverslips, serum starved for 4 h, incubated with the indicated concentrations of IODVA1 for 1 h, then EGF (50 ng/mL) stimulated, fixed and stained with Phalloidin Alexa Fluor 594 (F-Actin, pseudocolored red) and DAPI (nuclei, pseudocolored blue). […] The percentage of cells with CDRs was counted as the number of cells with CDRs normalized to the total number of cells in the field. Around 150 cells were counted per condition per experiment. Cells with multiple CDRs were counted only once. […] Levels of active Rac (RacGTP, % of control), active Cdc42 (Cdc42GTP, % of control) and active RhoA (RhoAGTP, % of control) were quantified using ImageJ and ImageLab and show combined data as mean±s.e.m. from at least 3 independent experiments. […]
To confirm that IODVA1 interferes with Rac activation, applicants checked the levels of active Rac and its downstream effector PAK1/2. MDA-MB-231 cells were incubated with IODVA1 (0-3 μM) for 1 h and levels of GTP-bound active Rac were measured by GST-PAK-GBD pull-downs and quantified (FIG. 5C). […]

SMILES: OC1(c2ccccn2)N=C(Nc2nc3ccccc3[nH]2)N=C1c1ccccn1 (stereo not shown) [IODVA1, (Z)-2-((1H-benzo[d]imidazol-2-yl)imino)-4,5-di(pyridin-2-yl)-2,5-dihydro-1H-imidazol-5-ol]
- decrease in levels of pPAK1/2 (T423/T402): 50%
